Read-outs that look alike come from different tables or passages of the source. Marks after values point to notes of the source that are not given here.
What was measured:
[1] = Metabolic stability in liver microsomes; type: in vitro ADME, human
[2] = Metabolic stability in liver microsomes; type: in vitro ADME; conditions: rat liver microsomes
[3] = Plasma and brain pharmacokinetics (BBB penetration) after PO in rats; type: in vivo; conditions: SD, rat, rats PO 2.5 mg/kg
Procedure: Pharmacokinetics profile of KMS88009 was obtained using ICR mice, SD rats, beagle dogs and cynomolgus monkeys. Animals were fasted overnight before KMS88009 administration. Mice were divided into 2 groups to receive KMS88009 as a single dose of 2.1 mg/kg intravenous (IV) bolus or 10 mg/kg orally (PO) by gavage. Additionally, KMS88009 was administered orally to estimate the BBB penetration in mice (10, 30 and 100 mg/kg). […] Dog received KMS88009 either as an IV bolus (1 mg/kg) via the great saphenous vein or by oral gavage (4 mg/kg). KMS88009 was administrated to monkeys as an IV bolus (1 mg/kg) via the femoral vein or by oral gavage (4 mg/kg). Vehicle for IV and PO administration was DMSO/tween-20/saline (3.3∶[…]∶79.6). All animals (n = 3 per group) were sacrificed and concentration of KMS88009 in plasma and brain were measured at 1/12, 1/4, 1/2, 1, 2, 4, 10 and 24 hr after IV administration and at 1/2, 1, 2, 4, 10 and 24 hr after PO administration. Brain samples were weighed and Daunce-homogenized in 10-fold volume of ice-chilled 4% bovine serum albumin (BSA) solution at room temperature. Plasma and brain homogenates were kept frozen at −70°C until analysis. The levels of KMS88009 were determined by the LC-MS/MS analysis. Pharmacokinetic parameters, time to the maximum concentration (Tmax), maximum concentration (Cmax), elimination half-life (T1/2), volume of distribution (Vd), clearance (Cl) and mean residual time (MRT), of KMS88009 were calculated based on plasma concentration-time data by a non-compartmental method using WinNonlin Version 5.2 (Pharsight, USA). Area under the curve from 0 to 24 hr (AUC0-24h) and area under the curve from 0 to infinity (AUCINF) were obtained by linear and log linear trapezoidal summations.

[4] = Single dose oral toxicity study; type: in vivo; conditions: SD, rat, in vivo, po
Procedure: (§1) KMS88009 was orally administered by gavage at dose levels of 0 (vehicle), 1,000 and 2,000 mg/kg. Each group consisted of 3 rats. Vehicle was DMSO/tween-20/saline (3.3∶3.3∶93.4) mixture. Administration volume of vehicle and KMS88009 was 10 mL/kg. Mortality, physical abnormalities and signs of pain/distress were daily observed in all animals. Body weight of each animal was measured before the administration and on the 1st, 4th, 8th, 11th and 14th days.
(§2) All data for single and 2-week repeated oral dose toxicity studies were expressed as the mean ± SD Difference between control and treated groups were evaluated with one-way analysis of variance (ANOVA) followed by Dunnett's test. Value P<0.05 was taken as being statistically significant. Statistical analyses were performed using GraphPad Prism software (USA).

SD rats = assay: Single dose oral toxicity study; type: in vivo; conditions: rats
Procedure: as §1, §2

APP/PS1 TG mice = assay: Contextual fear conditioning, prophylactic trial; type: in vivo, mouse; conditions: vehicle TG 15.3%, WT 54.1%

COc1ccc2cc(C=Cc3ccc(N(C)C)cc3)oc2c1 [KMS88009, 6-methoxy-2-(4-dimethylaminostyryl) benzofuran]
Metabolic stability ([1]; human liver microsomes 1 mg/mL, 5 µM, symbol): √ (Mean percent value is confirmed over 90% at 60 min.) | remaining at 1 h, 5 µM ([1]; human liver microsomes, read-out: Remaining % of parent molecule at 60 min.): 92.7 ± 0.4% | half-life at 5 µM [2]: 0.9733 ± 0.00667 h | remaining at 1 h, 5 µM ([2]; read-out: Remaining % of parent molecule at 60 min.): 61.2 ± 0.2% | Cmax ([3]; brain): 1310 ng/g | Tmax ([3]; plasma, same data as Table 3): 1.7 h | AUC(0-t) ([3]; plasma, same data as Table 3, read-out: AUC0–24h): 908 ng·h/mL | LD50 at 14 days [4]: > 2000 mg/kg | Mortality (dead animals / total number of animals) (SD rats; single PO 1,000 mg/kg): 0 / 3 ^a | Mortality (dead animals / total number of animals) (SD rats; single PO 2,000 mg/kg): 0 / 3 | freezing responses (contextual fear conditioning) (APP/PS1 TG mice; PO 10 mg/kg/day): 42.3% | freezing responses (contextual fear conditioning) (APP/PS1 TG mice; PO 30 mg/kg/day): 48.6% | freezing responses (contextual fear conditioning) (APP/PS1 TG mice; PO 100 mg/kg/day): 49.3%
